Data on 8 molecules can be found in publication PMC9506480, “Synthesis and Evaluation of Antiproliferative Activity, Topoisomerase IIα Inhibition, DNA Binding and Non-Clinical Toxicity of New Acridine–Thiosemicarbazone Derivatives” (Pharmaceuticals, 2022).

Like-named read-outs stand apart in the source and are kept apart here.

Data set [1] deals with HCT116 (human colon carcinoma). Description: Alamar blue cytotoxicity assay, HCT116. It counts as cell-based. Particulars: HCT-116, 72 h incubation. How it is done:
(§1) The in vitro cytotoxic activity of the compounds (Table 1) was evaluated against cancer cell lines HCT116 (human colon carcinoma), HepG2 (human hepatocellular carcinoma), B16F10 (murine melanoma carcinoma) and non-cancerous cell line MRC-5 (human lung fibroblast) using the Alamar blue assay after 72 h of incubation; doxorubicin (DOX) was used as a positive control. The unsubstituted derivatives on the acridine cores were encoded as CL, and the disubstituted derivatives as DL.
(§2) The human cancer cell lines HCT116 (colon carcinoma) and HepG2 (hepatocellular carcinoma), the mouse cancer cell line B16-F10 (melanoma), and the non-cancerous human cell line MRC-5 (lung fibroblast) were obtained from the American Type Culture Collection (ATCC, Manassas, VA, USA) and cultured according to the ATCC animal cell culture guide. All cell lines tested negative for mycoplasma using a mycoplasma stain kit.
(§3) Cell viability was measured using the Alamar blue assay, as previously described. Cells were seeded in 96-well plates for all experiments. The compounds were dissolved in dimethyl sulfoxide (DMSO, Sigma-Aldrich) and added to each well in eight serial concentrations ranging from 0.19 to 25 μg/mL. As a positive control, doxorubicin was used. After 72 h of treatment, 20 μL of resazurin (0.312 mg/mL) was added to each well. A SpectraMax 190 Micro-plate Reader was used to measure absorbances at 570 and 595 nm (Molecular Devices, Sunnyvale, CA, USA). Nonlinear regression with 95% confidence intervals (CI 95%) was used to calculate the inhibitory concentration of 50% (IC50) using GraphPad Prism software (Intuitive Software for Science; San Diego, CA, USA).
A general note: Alamar Blue is a resazurin reagent that responds to reducing activity.

Data set [2] deals with T1, recombinant human topoisomerase IIα (p170) (Homo sapiens, UniProt P11388).
T1 construct: purchased Sigma-Aldrich
Description: Human topoisomerase IIα inhibition assay (pUC19 plasmid relaxation). It counts as biochemical. From the text:
Several studies have shown the ability of acridines to inhibit topoisomerases, being considered the main mechanism responsible for the antiproliferative activities of this scaffold. The possibility of the new acridine derivatives to inhibit Topo IIα in its biological function of DNA double-strand relaxation was investigated in this work. This enzymatic inhibition can be accompanied by the presence of a supercoiled or relaxed DNA band, performed with the pUC19 plasmid, as shown in Figure 2. In this study, mAMSA was used as a positive inhibition control.
For testing the ability of Topo IIα inhibition, the compounds were evaluated in the DNA plasmid relaxation assay. This test consists of evaluating the Topo IIα enzyme activity in the absence and presence of the compound, followed by electrophoresis analysis, as previously described by Almeida et al. (2016). Briefly, 100 ng pUC19 DNA plasmid (Sigma-Aldrich) and 4.0 units of recombinant human (p170) topoisomerase II (Sigma-Aldrich) in relaxation buffer without or with tested compounds were incubated for 30 min at 37 °C. The tested concentrations were […], and amsacrine (mAMSA) was used as a positive control. Reactions were terminated with 1% SDS and digested with proteinase K. Then, the reaction products were analyzed by electrophoresis gel stained with ethidium bromide and photographed under UV light. Quantitative evaluation (% of enzyme inhibition by compounds about the positive control mAMSA) of the gel bands corresponding to supercoiled DNA was performed by densitometry using image-processing software (Scion Image, version Beta 4.0.2.) according to Gouveia et al. (2018).
Figure 2 Effects of mAMSA and its acridine derivatives on topoisomerase IIα activity. Effects of derivatives and positive control on the inhibition of human topoisomerase IIα. Native supercoiled pUC19 was incubated for 30 min at 37 °C with […] of human Topo IIα in the absence (lane 2) or presence of ligands at a concentration 100 μM. Inhibition of Topo IIα-induced DNA relaxation by mAMSA (lane 3) was used as a positive control. DNA samples were run on an agarose gel followed by ethidium bromide staining.

Data set [3] deals with HepG2 (human hepatocellular carcinoma). Description: Alamar blue cytotoxicity assay, HepG2. It counts as cell-based. The settings on record: 72 h incubation. How it is done: as §1, §2, §3
Data set [4] has as its system B16-F10 (murine melanoma). The experiment in a line: Alamar blue cytotoxicity assay, B16-F10. The data set is classed as cell-based. The settings on record: Mus musculus, 72 h incubation. As for the experimental part:
as §1, §2, §3

Data set [5] has as its system MRC-5 (human lung fibroblast). The experiment in a line: Alamar blue cytotoxicity assay, non-cancerous MRC-5. The data set is classed as cell-based. The settings on record: MRC5, 72 h incubation, non-cancerous cell. How it is done: as §1, §2, §3
The subject of data set [6] is MRC-5 (human lung fibroblast). Set-up: method as in Silva et al. (2018) [67]. The settings on record: ref Silva et al. (2018) [67]; cited from earlier work.
The subject of data set [7] is B16-F10 (murine melanoma). Set-up: method as in Silva et al. (2018) [67]. Particulars: ref Silva et al. (2018) [67]; cited from earlier work.
Data set [8] has as its system HCT116 (human colon carcinoma). The arrangement: method as in Silva et al. (2018) [67]. Particulars: ref Silva et al. (2018) [67]; cited from earlier work.
The test system of data set [9] is HepG2 (human hepatocellular carcinoma). Set-up: method as in Silva et al. (2018) [67]. The settings on record: ref Silva et al. (2018) [67]; cited from earlier work.
For the next data set, the system named is CT DNA. The experiment in a line: CT DNA binding by UV–Vis absorption spectroscopy. Set-up: species or system calf. The settings on record: compound 40 µM, CT DNA 0 to 60 µM, Tris-HCl pH 7.4. As for the experimental part: Absorption spectroscopy is a convenient and simple method for probing the binding of small molecules to DNA. The interaction of selected acridine–thiosemicarbazone derivatives with CT DNA was studied in the 220–500 nm region. Binding constants (Kb) were calculated from [DNA]/(Ɛa − Ɛf) versus [DNA], in which Kb is given by the ratio of slope to the intercept. […] For this, the regions chosen were the ones with the highest absorption intensity above 300 nm, due to the lower interference in DNA absorption in this region (ESI, Figures S50 and S53).
The concentration of the calf thymus, Type I, fibers (CT DNA), was determined based on the extinction coefficient of the absorbance at 260 nm (6600 L mol^−1 cm^−1). All compounds were dissolved in methanol (HPLC grade) at a concentration of 1 mmol L^−1 (stock solution). Working solutions were prepared by diluting the stock solution using Tris-HCl buffer (pH 7.4), with concentrations of 40 µmol L^−1. Under the optimized concentration, the compounds were titered with increasing concentrations of CT DNA (5 to 60 µmol L^−1). After shaking the system and incubating at room temperature for 10 min, the measurements were recorded using a JASCO J818 spectropolarimeter in the range of 220 to 500 nm at 298 K. The intrinsic bond constant (Kb) was obtained by adjusting the data according to the equation below:[DNA]/(Ɛa − Ɛf) = [DNA]/(Ɛb − Ɛf) + 1/[Kb (Ɛb − Ɛf)] where Ɛa, Ɛb and Ɛf are the apparent extinction coefficient of the compounds, the extinction coefficient of the compounds found in their […] and the extinction coefficient of the compounds when fully DNA-bound, respectively. The graph of [DNA]/(Ɛa − Ɛf) versus [DNA] was used to obtain the Kb from the ratio between the slope and the intercept, as previously described in the literature. Binding data were obtained using SigmaPlot 10.0 software. The study of possible DNA denaturation using methanol–water solutions was evaluated up to the maximum final concentration of methanol in the assays (6%) (ESI, Figures S50 and S53).

T1 sequence (P11388 whole entry): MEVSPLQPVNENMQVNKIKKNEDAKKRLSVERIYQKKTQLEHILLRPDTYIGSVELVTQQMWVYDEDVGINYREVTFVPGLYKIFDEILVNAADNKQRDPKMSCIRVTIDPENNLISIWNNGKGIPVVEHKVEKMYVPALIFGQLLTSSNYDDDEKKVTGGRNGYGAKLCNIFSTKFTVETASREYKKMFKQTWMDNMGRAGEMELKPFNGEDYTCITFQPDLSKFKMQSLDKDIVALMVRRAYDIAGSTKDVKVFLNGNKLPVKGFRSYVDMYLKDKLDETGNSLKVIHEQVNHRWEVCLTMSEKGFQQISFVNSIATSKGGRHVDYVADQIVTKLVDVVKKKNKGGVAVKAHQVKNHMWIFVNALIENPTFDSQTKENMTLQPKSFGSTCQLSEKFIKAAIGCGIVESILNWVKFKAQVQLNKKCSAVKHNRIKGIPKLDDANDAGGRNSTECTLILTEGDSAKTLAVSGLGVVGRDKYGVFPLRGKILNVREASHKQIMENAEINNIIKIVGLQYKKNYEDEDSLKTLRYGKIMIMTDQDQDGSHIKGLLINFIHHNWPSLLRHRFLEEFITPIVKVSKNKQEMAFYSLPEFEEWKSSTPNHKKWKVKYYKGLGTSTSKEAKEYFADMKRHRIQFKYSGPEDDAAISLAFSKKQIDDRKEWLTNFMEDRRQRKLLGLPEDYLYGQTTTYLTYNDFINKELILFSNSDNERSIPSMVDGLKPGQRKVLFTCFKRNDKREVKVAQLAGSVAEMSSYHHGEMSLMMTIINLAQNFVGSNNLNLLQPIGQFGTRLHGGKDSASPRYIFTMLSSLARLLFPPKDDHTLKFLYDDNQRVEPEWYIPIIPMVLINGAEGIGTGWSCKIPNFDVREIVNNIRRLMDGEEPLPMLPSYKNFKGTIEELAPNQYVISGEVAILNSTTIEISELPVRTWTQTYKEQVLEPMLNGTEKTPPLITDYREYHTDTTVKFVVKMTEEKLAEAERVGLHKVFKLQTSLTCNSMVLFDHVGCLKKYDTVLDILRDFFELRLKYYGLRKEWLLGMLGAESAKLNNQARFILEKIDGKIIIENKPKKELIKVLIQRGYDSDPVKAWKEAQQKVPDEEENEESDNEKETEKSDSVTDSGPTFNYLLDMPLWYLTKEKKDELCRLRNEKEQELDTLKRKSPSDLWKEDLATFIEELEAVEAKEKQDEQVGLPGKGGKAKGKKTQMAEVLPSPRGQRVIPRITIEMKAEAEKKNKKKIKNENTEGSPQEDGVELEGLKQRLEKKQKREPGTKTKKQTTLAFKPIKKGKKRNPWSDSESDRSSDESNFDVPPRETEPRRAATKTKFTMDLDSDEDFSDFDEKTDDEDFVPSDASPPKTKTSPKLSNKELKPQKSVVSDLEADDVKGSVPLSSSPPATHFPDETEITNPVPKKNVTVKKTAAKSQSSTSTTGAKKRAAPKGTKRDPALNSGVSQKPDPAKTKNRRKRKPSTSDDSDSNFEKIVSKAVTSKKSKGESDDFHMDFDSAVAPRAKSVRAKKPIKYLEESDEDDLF

The term melting point denotes the temperature of the solid-liquid transition. By IC50 is commonly meant the concentration that gives 50% inhibition. `COc1ccc2nc3cc(Cl)ccc3c(NC(=S)N/N=C/c3ccc(C)cc3)c2c1` [DL-06, (E)-N-(6-chloro-2-methoxyacridin-9-yl)-2-(4-methylbenzylidene)hydrazine-1-carbothioamide] had a melting point of 157 to 158 °C. For the same molecule, the IC50 in data set [1] is greater than 60 µM. In addition, in data set [2] (100 µM), the “inhibition of Topo IIα enzymatic activity (in words)” value was “did not show inhibition capacity”. In addition, in data set [3], it took 33.4 µM to reach half-maximal inhibition (IC50). In data set [4], this molecule came in with an IC50 of 26.3 µM. In [5], this molecule came in with an IC50 greater than 60 µM.
`COc1ccc2nc3cc(Cl)ccc3c(NC(=S)N/N=C/c3ccc([N+](=O)[O-])cc3)c2c1` [DL-05, (E)-N-(6-chloro-2-methoxyacridin-9-yl)-2-(4-nitrobenzylidene)hydrazine-1-carbothioamide] showed a melting point of 164 to 165 °C. Moreover, the IC50 in data set [1] is greater than 60 µM. This molecule also gave an IC50 in data set [3] greater than 60 µM. In [4], this molecule displayed an IC50 greater than 60 µM. Also, in data set [5], the IC50 was greater than 60 µM.
For the molecule `COc1ccc2nc3cc(Cl)ccc3c(NC(=S)N/N=C/c3ccc(Br)cc3)c2c1` [DL-10, (E)-2-(4-bromobenzylidene)-N-(6-chloro-2-methoxyacridin-9-yl)hydrazine-1-carbothioamide], the melting point was 162 to 163 °C. The IC50 in data set [1] is greater than 50 µM. For the same molecule, the IC50 in data set [3] worked out at 20.9 µM. In data set [4], the IC50 was determined as 34.6 µM. Further, the IC50 in [5] was greater than 50 µM.
A word on the inhibition: it is the drop in the measured response relative to a control, in per cent. For the molecule `COc1ccc2nc3cc(Cl)ccc3c(NC(=S)N/N=C/c3ccc(O)cc3)c2c1` [DL-07, (E)-N-(6-chloro-2-methoxyacridin-9-yl)-2-(4-hydroxybenzylidene)hydrazine-1-carbothioamide], the melting point lay in the range of 163 to 164 °C. In addition, the IC50 in data set [1] worked out at 28.5 µM. Besides, the “inhibition of Topo IIα enzymatic activity (in words)” value in data set [2] (100 µM) is listed as “able to inhibit the enzymatic activity”. Also, in data set [2] (100 µM, densitometry, relative to positive control mAMSA, '-' = no inhibition), the “% of enzyme inhibition” value turned out to be 74%. For the same molecule, in data set [2] (densitometry, relative to positive control mAMSA, '-' = no inhibition, read-out: % of enzyme inhibition), the inhibition at 100 µM is greater than 74%. This molecule also gave an IC50 in data set [3] of 24.8 µM. The molecule also returned a 50% inhibitory concentration (IC50) in [4] of 21.1 µM. The IC50 in data set [5] was 23.6 µM.
`O=c1[nH]cc(F)c(=O)[nH]1` [5-FU, 5-fluorouracil]: the IC50 is 57.9 µM in data set [6], 3.5 µM in data set [7], 4.1 µM in data set [8] and 1.3 µM in data set [9].
Take `COc1ccc2nc3cc(Cl)ccc3c(NC(=S)N/N=C/c3ccc(Cl)cc3Cl)c2c1` [DL-04, (E)-N-(6-chloro-2-methoxyacridin-9-yl)-2-(2,4-dichlorobenzylidene)hydrazine-1-carbothioamide]: the melting point fell in the range of 192 to 193 °C. Besides, the IC50 in data set [1] is greater than 60 µM. For the same molecule, the IC50 in data set [3] is greater than 60 µM. In [4], this molecule came in with an IC50 greater than 60 µM. The IC50 in [5] is greater than 60 µM.
`COc1ccc2nc3cc(Cl)ccc3c(NC(=S)N/N=C/c3ccc(N(C)C)cc3)c2c1` [DL-09, (E)-N-(6-chloro-2-methoxyacridin-9-yl)-2-(4-(dimethylamino)benzylidene)hydrazine-1-carbothioamide] yielded a melting point of 149 to 150 °C. This molecule also returned an IC50 in [1] greater than 60 µM. The IC50 in data set [3] is greater than 60 µM. Half-maximal inhibition in [4] (IC50) was put at 46 µM. Further, the IC50 in [5] was greater than 60 µM.
`CC[n+]1c(-c2ccccc2)c2cc(N)ccc2c2ccc(N)cc21` [EtBr, ethidium bromide, reference compound]: the “Hypochromic (%)” value in the data set on CT DNA turned out to be 35.15%.
